# Assay results published in US8338410B2, “Neuroprotective compounds and pharmaceutical compositions comprising them” (Biocodex, priority 2005, dated 2012).
# Assays:
# [1] = tested on: mice subjected to hypobaric hypoxia; experiment: Hypobaric hypoxia in mice (survival time); assay type: in vivo, NMRI male mice; settings: mice; for Percentage variation / Survival time in seconds (m ± sem): hypobaric hypoxia 160 mmHg
# Method: 1.1 Hypobaric Hypoxia in Mice
# NMRI male mice from Janvier weighing between 25 and 30 grams were used after acclimatisation in the animal house for at least 7 days (t°=22±2° C.; humidity 50±20%; feed UAR “A04” SAFE (Augy, France) and tap water ad libitum; 12 hour night and day cycle (light from 7 a.m. to 7 p.m.).
# The unfasting […] were distributed at random into lots of 10.
# The protocol of Nakaniski et al. (1973) Life Sciences, 13, 467-474 was adapted for the purposes of the model.
# Each mouse was placed in a dessicator (hermetically sealed enclosure) in which atmospheric pressure was reduced from 760 to 160 mmHg using a water pump. This pressure reduction was carried out in one minute and caused death of the control animals in approximately 1 minute.
# The survival time of the animal, which corresponded to the difference between the time to death of the mouse assessed by respiratory arrest less the time required to induce the hypoxia was then noted.
# The products under investigation were administered intraperitoneally (i.p.) (0.1 ml/10 g), 30 minutes before inducing hypobaric hypoxia, or orally (0.1 ml/10 g p.o.) 1 hour before hypoxia.
# Etifoxine hydrochloride was dissolved in 1% Tween 80. The potassium cyanide (Merck) was dissolved in 0.9% NaCl.
# The statistical test used was a one-factor analysis of variance to determine the treated groups, which differed from the control group receiving the vehicle, at a threshold of 5%.
# [2] = tested on: cortical neurones in the presence of astrocytes in culture; experiment: Prior cytotoxicity, microscopic observation after 48 hours; assay type: cell-based; settings: 100 μM, 48 hours incubation
# Method: (§1) • Cell type: Initial culture of cortical neurones from 14 day rat embryos and initial culture of cortical astrocytes from newborn rats. • Culture medium: DMEM-Ham F12 (Invitrogen 21331020) • B27 2% (invitrogen 17504044) • L-glutamine 2 mM (Invitrogen 25030024) • Penicillin 50 UI/ml—Streptomycin 50 μg/ml (Invitrogen 15070063) • Nerve Growth Factor 10 ng/ml (NGF, Invitrogen 13290.010) • Survival medium: MEM (Invitrogen 21090022) • L-glutamine 2 mM (Invitrogen 25030024) • Penicillin 50 UI/ml—Streptomycin 50 μg/ml (Invitrogen 15070063) • Supplement N2 (Invitrogen 17502-048) 1.2 Prior Cytotoxicity • Platelets: 96 wells • Culture time: 8 days • Cells/well: cortical neurones+astrocytes • Product range: from 100 μM then ratio 3 • Replicates: 3 • Cell/product contact: 48 hours • Evaluation parameters: microscopic observation and MTT hydrolysis. • MTT: 3-(4,5-dimethylthiozol-2-yl)-2,5-diphenyltetrazolium bromide 1.3 Treatment and Analysis of the Network of Extensions Marked with Antineurofilament Antibody
# A first experiment was carried out (conventional test used to measure the level of cell survival) in order to investigate the cytotoxicity of etifoxine in relation to cortical neurones in the presence of astrocytes in culture and thus to determine the maximum non-toxic concentration of etifoxine.
# [3] = tested on: rats subjected to histotoxic hypoxia induced by potassium cyanide; experiment: KCN (i.v.) hypoxia in rats (survival time); assay type: in vivo, Wistar male rats; settings: rats, KCN 4 mg/kg i.v.
# [4] = tested on: mixed cultures of rat cortical neurones and astrocytes; experiment: Density of neuritic extensions marked by anti-neurofilament antibody, with or without excess glutamate; assay type: cell-based; settings: for density of neurofilaments: control culture medium
# Excerpt: The principle of the investigation consisted of evaluating the survival of cortical neurones in co-culture with astrocytes after the application of a neurotoxic agent, excess glutamate.
# Neurone survival is quantified by the density of the system of neuritic extensions marked by an anti-neurofilament antibody in the absence or presence of glutamate.
# as §1
# The cortical neurones were obtained from the cortex of 14 day rat embryos cultured in platelet culture medium 96 and then in a stove at 37° C. and 5% CO2 with saturated humidity. After 2 days culture astrocytes obtained from newborn rat cortex were seeded in the wells (in a ratio of 1 astrocyte to 4 neurones). After 10 days culture the mature neurones synthesised neurofilaments (structural protein specific to mature neurones); in addition to this these neurones expressed functional receptors to glutamate on their surfaces and could therefore be intoxicated.
# On the 12th day of culture the medium was replaced by survival medium with or without etifoxine in 3 concentrations and the neurones were or were not intoxicated with glutamate (Sigma G1501) at a strength of 2 mM and 10 mM. Each culture condition was applied to 4 wells. The cultures were incubated for 2 periods (6 and 24 hours).
# A positive control was carried out in the survival culture medium containing Nerve Growth Factor (NGF; 10 ng/ml) and basic Fibroblast Growth Factor (FGFb; 5 ng/ml) and the cells were intoxicated under the same conditions.
# At the end of the two incubation periods (6 and 24 hours) the cell layers were fixed and marked with a anti-68- and 200 kD neurofilament monoclonal antibody (DAKO M0762) and then developed using a mouse anti-immunoglobulin goat antibody conjugate Alexia fluor 488 (Interchim A-11029). Controls without primary antibody were performed. All the controls were negative (no non-specific labelling). After extensive washing with PBS the preparations were observed under epi-fluorescence (Nikon Diaphot 300 microscope).
# 2 images were obtained for each culture well (4 wells per experimental condition) using a Nikon DXM1200F camera controlled by LUCIA 6.0 software.
# All the images were obtained under the same conditions and with identical camera settings.
# The densities of the networks of extensions marked with anti-neurofilament antibody were examined using LUCIA 6.0 software. Initial image processing made it possible to increase the intensity of the specific marking on the extensions. Areas in which marking was positive were binarised and the percentage marking per image was determined (marked surface area/total surface area examined).
# The results (mean values±standard error with respect to the mean (SEM) were expressed as percentage marking per microscope field (n=8 measurements/culture conditions). 2-factor analysis of variance (Etifoxine and glutamate), followed by the Student Newman-Keuls multiple comparisons test was used for statistical comparison of the results. […]
smiles,measurement,setting,value
"CCNC1=Nc2ccc(Cl)cc2C(C)(c2ccccc2)O1.Cl (centres unmarked) [etifoxine, 6-chloro-2-ethylamino-4-methyl-4-phenyl-4H-[3,1]benzoxazine hydrochloride]",Percentage variation,[1]; i.p. 3 mg/kg,+12%
same,Survival time in seconds (m ± sem),[1]; i.p. 3 mg/kg,64.5 ± 3.4 s
same,Percentage variation,[1]; i.p. 10 mg/kg,+15%
same,Survival time in seconds (m ± sem),[1]; i.p. 10 mg/kg,66.1 ± 3.0 s
same,Percentage variation,[1]; i.p. 30 mg/kg,+42%
same,Survival time in seconds (m ± sem),[1]; i.p. 30 mg/kg,81.8 ± 4.6 s
same,Percentage variation,[1]; i.p. 50 mg/kg,+141%
same,Survival time in seconds (m ± sem),[1]; i.p. 50 mg/kg,138.5 ± 23.3 s
same,Percentage variation,[1]; i.p. 75 mg/kg,+130%
same,Survival time in seconds (m ± sem),[1]; i.p. 75 mg/kg,132.0 ± 21.6 s
same,Percentage variation,[1]; p.o. 30 mg/kg,+47%
same,Survival time in seconds (m ± sem),[1]; p.o. 30 mg/kg,81.5 ± 4.5 s
same,Percentage variation,[1]; p.o. 100 mg/kg,+72%
same,Survival time in seconds (m ± sem),[1]; p.o. 100 mg/kg,95.3 ± 5.6 s
same,Percentage variation,[1]; p.o. 200 mg/kg,+79%
same,Survival time in seconds (m ± sem),[1]; p.o. 200 mg/kg,99.5 ± 2.7 s
same,Percentage variation,[1]; p.o. 300 mg/kg,+108%
same,Survival time in seconds (m ± sem),[1]; p.o. 300 mg/kg,115.5 ± 8.6 s
same,time to death,"[1]; hypobaric hypoxia, over 30 mg/1 kg i.p. or p.o.",significantly increased the time to death
same,"astrocyte mortality, visual examination with a microscope",[2],astrocyte mortality was observed
same,Percentage variation,[3]; compound i.p. dose 30,+7%
same,Survival time in seconds (m ± sem),[3]; compound i.p. dose 30,60.3 ± 2.0 s
same,Percentage variation,[3]; compound i.p. dose 50,+90%
same,Survival time in seconds (m ± sem),[3]; compound i.p. dose 50,107.3 ± 6.1 s
same,Percentage variation,[3]; compound i.p. dose 75,+155%
same,Survival time in seconds (m ± sem),[3]; compound i.p. dose 75,144.3 ± 11.5 s
same,Percentage variation,[3]; compound p.o. dose 50,+7%
same,Survival time in seconds (m ± sem),[3]; compound p.o. dose 50,59.5 ± 2.1 s
same,Percentage variation,[3]; compound p.o. dose 100,+8%
same,Survival time in seconds (m ± sem),[3]; compound p.o. dose 100,60.1 ± 1.2 s
same,Percentage variation,[3]; compound p.o. dose 200,+15%
same,Survival time in seconds (m ± sem),[3]; compound p.o. dose 200,63.9 ± 2.0 s
same,time to death,[3]; from 50 mg/kg i.p. and 200 mg/kg p.o.,significantly increased the time to death
same,density of marked neurofilaments,"[4]; control culture medium (without glutamate), 6 hours, significant at 10 μM",increased the density of marked neurofilaments in a dose-dependent way
same,density of neurofilaments,"[4]; 24 hours, 10 μM",increased the density of neurofilaments
same,density of neurofilaments,"[4]; 24 hours, 1 and 3 μM",without effect
same,density of neurofilaments in the presence of glutamate,"[4]; glutamate 2 mM, 24 hours, compound 10 μM",opposed the effects of 2 mM of glutamate
same,density of neurofilaments in the presence of glutamate,"[4]; glutamate 2 and 10 mM, 6 hours, compound 3 and 10 μM",opposed the decrease in density of neurofilaments induced by glutamate
